Results from publication PMC10507085, “Pharmacological inhibition of TBK1/IKKε blunts immunopathology in a murine model of SARS-CoV-2 infection” (Nature Communications, 2023).

How the values were obtained:
Assay in all cases: biochemical
Parameters in all cases: KINOMEscan competition binding, DNA-tagged kinase against immobilised ligand, qPCR read-out
Settings in all cases: read-out: Percent Control
BTK = BTK (Homo sapiens, UniProt Q06187)
PAK7 = biological target: T1, PAK7 (Homo sapiens, UniProt Q9P286)
T1 construct: gene PAK5

AKT3 = AKT3 (Homo sapiens, UniProt Q9Y243)
TAOK2 = TAOK2 (Homo sapiens, UniProt Q9UL54)
EPHA3 = EPHA3 (Homo sapiens, UniProt P29320)
[1] = biological target: T2, RPS6KA4(Kin.Dom.2-C-terminal) (Homo sapiens, UniProt O75676)
T2 construct: Kin.Dom.2 C-terminal

PKN2 = PKN2 (Homo sapiens, UniProt Q16513)
PRKCQ = PRKCQ (Homo sapiens, UniProt Q04759)
CDK15 = CDK15 (Homo sapiens, UniProt Q96Q40)
HCK = HCK (Homo sapiens, UniProt P08631)
[2] = biological target: T3, RPS6KA4(Kin.Dom.1-N-terminal) (Homo sapiens, UniProt O75676)
T3 construct: Kin.Dom.1 N-terminal

MAP3K7 = MAP3K7 (Homo sapiens, UniProt O43318)
STK24 = STK24 (Homo sapiens, UniProt Q9Y6E0)
CDK9 = CDK9 (Homo sapiens, UniProt P50750)
EGFR = EGFR (Homo sapiens, UniProt P00533)
[3] = biological target: T4, RSK4(Kin.Dom.2-C-terminal) (Homo sapiens, UniProt Q9UK32)
T4 construct: gene RPS6KA6; Kin.Dom.2 C-terminal

MAPK15 = MAPK15 (Homo sapiens, UniProt Q8TD08)
STK38 = STK38 (Homo sapiens, UniProt Q15208)
NEK6 = NEK6 (Homo sapiens, UniProt Q9HC98)

Chain of TAOK2 (Q9UL54 whole entry): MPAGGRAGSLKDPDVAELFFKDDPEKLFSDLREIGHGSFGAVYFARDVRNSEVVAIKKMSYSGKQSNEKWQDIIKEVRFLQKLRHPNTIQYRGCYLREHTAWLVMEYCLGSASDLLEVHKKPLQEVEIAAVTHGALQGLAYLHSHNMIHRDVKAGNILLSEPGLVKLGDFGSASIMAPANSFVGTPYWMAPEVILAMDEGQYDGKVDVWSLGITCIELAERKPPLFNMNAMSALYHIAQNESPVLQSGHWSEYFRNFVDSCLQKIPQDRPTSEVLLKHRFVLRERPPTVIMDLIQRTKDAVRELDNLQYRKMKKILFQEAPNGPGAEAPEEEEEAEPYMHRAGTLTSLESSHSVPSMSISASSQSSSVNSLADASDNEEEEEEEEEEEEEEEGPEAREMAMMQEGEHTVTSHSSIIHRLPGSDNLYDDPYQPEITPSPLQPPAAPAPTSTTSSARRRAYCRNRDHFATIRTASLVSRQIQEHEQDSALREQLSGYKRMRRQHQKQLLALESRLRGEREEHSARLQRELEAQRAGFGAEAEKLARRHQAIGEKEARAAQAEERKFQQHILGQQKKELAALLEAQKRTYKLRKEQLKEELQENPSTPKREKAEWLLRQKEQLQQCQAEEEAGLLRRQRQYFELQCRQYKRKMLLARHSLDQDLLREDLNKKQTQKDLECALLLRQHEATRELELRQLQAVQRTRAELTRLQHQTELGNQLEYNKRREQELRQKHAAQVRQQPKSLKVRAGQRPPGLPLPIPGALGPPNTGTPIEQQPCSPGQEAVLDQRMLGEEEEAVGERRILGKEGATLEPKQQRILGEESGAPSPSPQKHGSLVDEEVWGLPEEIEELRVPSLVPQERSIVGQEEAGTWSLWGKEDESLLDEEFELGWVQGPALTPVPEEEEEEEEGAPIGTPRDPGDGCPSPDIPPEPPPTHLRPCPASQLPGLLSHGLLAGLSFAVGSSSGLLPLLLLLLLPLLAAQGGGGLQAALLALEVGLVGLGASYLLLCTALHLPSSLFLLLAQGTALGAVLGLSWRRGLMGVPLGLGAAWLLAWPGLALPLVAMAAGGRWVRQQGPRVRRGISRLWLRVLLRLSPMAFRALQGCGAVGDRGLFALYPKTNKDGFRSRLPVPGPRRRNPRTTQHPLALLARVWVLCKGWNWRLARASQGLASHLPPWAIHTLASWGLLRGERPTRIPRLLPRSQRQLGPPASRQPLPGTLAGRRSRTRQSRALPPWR
Chain of EPHA3 (P29320 whole entry): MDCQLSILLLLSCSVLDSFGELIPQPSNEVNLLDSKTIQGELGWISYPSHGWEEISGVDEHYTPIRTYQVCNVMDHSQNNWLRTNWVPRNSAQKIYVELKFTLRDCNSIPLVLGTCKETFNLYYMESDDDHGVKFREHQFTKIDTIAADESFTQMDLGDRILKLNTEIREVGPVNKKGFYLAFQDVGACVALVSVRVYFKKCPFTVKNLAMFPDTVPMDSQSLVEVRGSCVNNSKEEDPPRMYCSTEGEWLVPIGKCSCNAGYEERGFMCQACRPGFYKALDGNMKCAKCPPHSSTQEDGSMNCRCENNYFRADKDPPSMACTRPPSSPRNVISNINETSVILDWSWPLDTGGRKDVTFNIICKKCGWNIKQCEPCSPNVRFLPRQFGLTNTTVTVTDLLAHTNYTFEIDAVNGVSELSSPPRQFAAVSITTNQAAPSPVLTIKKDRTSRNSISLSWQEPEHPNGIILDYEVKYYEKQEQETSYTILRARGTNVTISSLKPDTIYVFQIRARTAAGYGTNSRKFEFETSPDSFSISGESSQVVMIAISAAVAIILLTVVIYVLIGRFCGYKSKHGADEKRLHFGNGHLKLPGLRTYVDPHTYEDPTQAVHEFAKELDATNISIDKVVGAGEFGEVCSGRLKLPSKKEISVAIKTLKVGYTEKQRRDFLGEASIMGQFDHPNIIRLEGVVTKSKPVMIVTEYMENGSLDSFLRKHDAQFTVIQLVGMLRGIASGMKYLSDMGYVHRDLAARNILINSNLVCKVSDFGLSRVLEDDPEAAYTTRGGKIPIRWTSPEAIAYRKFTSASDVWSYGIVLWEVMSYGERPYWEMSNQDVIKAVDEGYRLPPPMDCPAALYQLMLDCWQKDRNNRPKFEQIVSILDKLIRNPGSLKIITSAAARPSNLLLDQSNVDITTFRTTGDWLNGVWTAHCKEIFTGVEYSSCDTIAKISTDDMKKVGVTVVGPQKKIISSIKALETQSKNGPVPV
Chain of STK38 (Q15208 whole entry): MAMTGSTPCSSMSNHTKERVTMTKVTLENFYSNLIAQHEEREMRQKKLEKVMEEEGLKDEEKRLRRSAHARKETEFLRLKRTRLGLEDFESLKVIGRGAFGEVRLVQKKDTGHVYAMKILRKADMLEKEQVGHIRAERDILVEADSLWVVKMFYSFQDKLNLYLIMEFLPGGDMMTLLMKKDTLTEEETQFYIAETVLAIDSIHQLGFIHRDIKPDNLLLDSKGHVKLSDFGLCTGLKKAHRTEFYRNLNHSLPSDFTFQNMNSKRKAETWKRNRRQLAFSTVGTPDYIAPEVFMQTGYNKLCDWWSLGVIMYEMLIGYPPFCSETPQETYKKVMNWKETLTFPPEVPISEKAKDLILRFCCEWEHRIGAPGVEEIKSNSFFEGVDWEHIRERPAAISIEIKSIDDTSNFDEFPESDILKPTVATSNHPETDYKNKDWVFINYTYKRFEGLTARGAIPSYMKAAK
T2 sequence (O75676 whole entry): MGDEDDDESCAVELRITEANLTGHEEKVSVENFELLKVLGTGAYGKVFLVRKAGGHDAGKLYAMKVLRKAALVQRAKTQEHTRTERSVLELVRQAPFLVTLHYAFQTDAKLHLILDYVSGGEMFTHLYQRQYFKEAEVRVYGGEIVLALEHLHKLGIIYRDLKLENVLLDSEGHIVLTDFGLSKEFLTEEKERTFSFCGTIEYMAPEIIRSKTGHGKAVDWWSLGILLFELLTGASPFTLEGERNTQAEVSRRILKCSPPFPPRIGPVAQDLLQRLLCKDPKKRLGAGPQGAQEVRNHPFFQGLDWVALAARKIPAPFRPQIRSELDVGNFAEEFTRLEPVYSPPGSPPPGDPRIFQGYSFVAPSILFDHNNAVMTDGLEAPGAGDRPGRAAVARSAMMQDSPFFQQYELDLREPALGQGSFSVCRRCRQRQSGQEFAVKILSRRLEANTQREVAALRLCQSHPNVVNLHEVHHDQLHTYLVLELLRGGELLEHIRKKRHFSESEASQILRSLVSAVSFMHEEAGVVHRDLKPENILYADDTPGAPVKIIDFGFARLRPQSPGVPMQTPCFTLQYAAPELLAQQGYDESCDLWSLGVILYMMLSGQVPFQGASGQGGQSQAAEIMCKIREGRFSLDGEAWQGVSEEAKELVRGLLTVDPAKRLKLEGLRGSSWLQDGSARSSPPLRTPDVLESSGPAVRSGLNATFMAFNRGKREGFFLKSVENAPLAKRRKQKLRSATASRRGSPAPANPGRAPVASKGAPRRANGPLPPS
T3 sequence (O75676 whole entry): as above
Chain of AKT3 (Q9Y243 whole entry): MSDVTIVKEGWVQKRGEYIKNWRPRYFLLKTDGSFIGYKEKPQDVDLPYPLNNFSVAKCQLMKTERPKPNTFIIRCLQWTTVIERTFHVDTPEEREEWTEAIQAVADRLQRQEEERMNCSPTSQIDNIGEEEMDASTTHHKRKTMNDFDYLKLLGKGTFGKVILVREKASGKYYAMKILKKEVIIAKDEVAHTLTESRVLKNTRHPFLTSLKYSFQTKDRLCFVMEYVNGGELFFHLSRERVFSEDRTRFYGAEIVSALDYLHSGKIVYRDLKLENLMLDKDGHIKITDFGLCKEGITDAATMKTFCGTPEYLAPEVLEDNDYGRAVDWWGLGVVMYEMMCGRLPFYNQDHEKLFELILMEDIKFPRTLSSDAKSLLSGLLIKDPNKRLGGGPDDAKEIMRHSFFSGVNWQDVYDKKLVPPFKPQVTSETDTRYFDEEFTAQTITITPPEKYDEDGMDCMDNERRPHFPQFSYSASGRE
Chain of CDK9 (P50750 whole entry): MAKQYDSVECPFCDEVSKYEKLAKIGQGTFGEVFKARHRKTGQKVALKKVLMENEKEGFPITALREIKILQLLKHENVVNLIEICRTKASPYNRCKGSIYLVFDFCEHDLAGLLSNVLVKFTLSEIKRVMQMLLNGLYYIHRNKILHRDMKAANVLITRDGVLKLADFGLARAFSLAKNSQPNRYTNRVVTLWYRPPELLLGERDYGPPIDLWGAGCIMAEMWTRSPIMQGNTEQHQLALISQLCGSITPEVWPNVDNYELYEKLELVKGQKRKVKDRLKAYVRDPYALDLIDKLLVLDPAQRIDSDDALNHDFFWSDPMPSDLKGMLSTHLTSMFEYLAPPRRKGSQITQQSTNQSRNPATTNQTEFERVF
T1 sequence (Q9P286 whole entry): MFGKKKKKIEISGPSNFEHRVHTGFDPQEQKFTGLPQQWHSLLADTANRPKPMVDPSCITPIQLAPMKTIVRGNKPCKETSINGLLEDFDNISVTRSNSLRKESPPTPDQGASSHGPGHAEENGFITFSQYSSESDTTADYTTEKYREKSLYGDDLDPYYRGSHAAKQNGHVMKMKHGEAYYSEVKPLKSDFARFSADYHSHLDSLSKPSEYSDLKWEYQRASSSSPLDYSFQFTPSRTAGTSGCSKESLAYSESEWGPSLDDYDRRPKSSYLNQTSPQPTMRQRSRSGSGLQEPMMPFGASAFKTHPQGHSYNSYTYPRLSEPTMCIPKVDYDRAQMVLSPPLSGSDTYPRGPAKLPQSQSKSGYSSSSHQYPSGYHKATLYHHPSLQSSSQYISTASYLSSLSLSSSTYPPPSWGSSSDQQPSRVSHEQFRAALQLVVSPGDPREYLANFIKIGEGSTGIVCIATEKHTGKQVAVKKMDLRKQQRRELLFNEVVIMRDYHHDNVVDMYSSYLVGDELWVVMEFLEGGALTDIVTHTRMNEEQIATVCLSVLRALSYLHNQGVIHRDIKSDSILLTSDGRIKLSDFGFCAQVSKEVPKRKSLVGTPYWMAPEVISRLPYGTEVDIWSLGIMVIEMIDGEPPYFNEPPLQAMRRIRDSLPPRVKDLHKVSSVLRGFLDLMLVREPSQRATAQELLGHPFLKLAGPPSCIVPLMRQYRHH

**Q.** What does the source list for Oc1ccc(C2=Cc3ccc(O)cc3OC2)cc1 [compound 1, idronoxil]?
**A.** remaining binding at 10 µM (BTK): 97%; remaining binding at 10 µM (PAK7): 95%; remaining binding at 10 µM (AKT3): 84%; remaining binding at 10 µM (TAOK2): 90%; remaining binding at 10 µM (EPHA3): 89%; remaining binding at 10 µM [1]: 53%; remaining binding at 10 µM (PKN2): 70%; remaining binding at 10 µM (PRKCQ): 73%; remaining binding at 10 µM (CDK15): 99%; remaining binding at 10 µM (HCK): 83%; remaining binding at 10 µM [2]: 83%; remaining binding at 10 µM (MAP3K7): 89%; remaining binding at 10 µM (STK24): 79%; remaining binding at 10 µM (CDK9): 91%; remaining binding at 10 µM (EGFR): 83%; remaining binding at 10 µM [3]: 76%; remaining binding at 10 µM (MAPK15): 49%; remaining binding at 10 µM (STK38): 68%; remaining binding at 10 µM (NEK6): 100%
